Blank lines part the entries; values can stand above or below the compound they belong to.
How the values were obtained:
JAK1 = molecular target: T1, JAK1 (Homo sapiens, UniProt P23458); test: In vitro activity test of JAK1 kinase (Caliper EZ Reader conversion assay); type: biochemical; details: enzyme activity, 10 concentrations from 1000 nM, 3-fold dilution
T1 construct: purchased Carna 08-114
Experimental: (§1) In Vitro Activity Test of JAK1 and JAK2 Kinases
(§2) • Centrifuge (manufacturer: Eppendorf, model: 5430) • ELISA Instrument (Manufacturer: Perkin Elmer, Model: Caliper EZ Reader 1I) • Echo 550 (Manufacturer: Labcyte, Model: Echo 550)
(§3) (1) Prepare 1 Kinase buffer.
(§4) (2) Compound concentration gradient preparation: The test compound was tested at 1000 nM, 3-fold dilution, 10 concentrations, two-well assay, and configured to a 100-fold final concentration in a 384-well plate. 250 nl of the test compound was then transferred to the 384 reaction plate using Echo550. 250 nl of 100% DMSO was added to each of the negative and positive control wells.
(§5) (3) Prepare 2.5 times the final concentration of kinase solution with 1×Kinase buffer.
(§6) (4) Add 10 μL of 2.5 times the final concentration of kinase solution to the compound wells and 10 μL of 1×Kinase buffer to the negative control wells.
(§7) (5) Centrifuge at 1000 rpm for 30 seconds, mix well with shaking, and incubate at room temperature for 10 minutes.
(§8) (6) Prepare a 25/15-fold final concentration of mixture of ATP and Kinase substrate with 1×Kinase buffer.
(§9) (7) Add 15 μL of a mixture of 25/15 times the final concentration of ATP and substrate to start the reaction.
(§10) (8) Centrifuge the 384-well plate at 1000 rpm for 30 seconds, mix well with shaking, and incubate at room temperature for an appropriate amount of time.
(§11) (9) Stop the kinase reaction by adding 30 μL of termination solution, centrifuge at 1000 rpm for 30 seconds, and mix well with shaking.
(§12) (10) Read the conversion rate with Caliper EZ Reader.
(§13) where: Conversion %_sample is the conversion rate reading of the sample-, Conversion %_min: the average value of the negative control wells, representing the conversion reading of the wells without enzyme activity: Conversion %-max: the average value of the positive control wells, representing the conversion reading of the wells without compound inhibition.
(§14) The log value of concentration was used as the X-axis and the percentage inhibition as the Y-axis, and the function of the analytical software GraphPad Prism 5; log(inhibitor) vs. response -Variable slope, was used to lit dose-effect curves to obtain the IC50) values of each compound on enzyme activity.
(§15) The formula is Y=Bottom+(Top-Bottom)/(1+10^((LogIC50-X)*HillSlope))
(§16) The 1C50 data are specified in Table 1.

JAK2 = molecular target: T2, JAK2 (Homo sapiens, UniProt O60674); test: In vitro activity test of JAK2 kinase (Caliper EZ Reader conversion assay); type: biochemical; details: enzyme activity, 10 concentrations from 1000 nM, 3-fold dilution
T2 construct: purchased Carna 08-045
Experimental: as §1, §2, §3, §4, §5, §6, §7, §8, §9, §10, §11, §12, §13, §14, §15, §16

T1 sequence (P23458 whole entry, species assumed): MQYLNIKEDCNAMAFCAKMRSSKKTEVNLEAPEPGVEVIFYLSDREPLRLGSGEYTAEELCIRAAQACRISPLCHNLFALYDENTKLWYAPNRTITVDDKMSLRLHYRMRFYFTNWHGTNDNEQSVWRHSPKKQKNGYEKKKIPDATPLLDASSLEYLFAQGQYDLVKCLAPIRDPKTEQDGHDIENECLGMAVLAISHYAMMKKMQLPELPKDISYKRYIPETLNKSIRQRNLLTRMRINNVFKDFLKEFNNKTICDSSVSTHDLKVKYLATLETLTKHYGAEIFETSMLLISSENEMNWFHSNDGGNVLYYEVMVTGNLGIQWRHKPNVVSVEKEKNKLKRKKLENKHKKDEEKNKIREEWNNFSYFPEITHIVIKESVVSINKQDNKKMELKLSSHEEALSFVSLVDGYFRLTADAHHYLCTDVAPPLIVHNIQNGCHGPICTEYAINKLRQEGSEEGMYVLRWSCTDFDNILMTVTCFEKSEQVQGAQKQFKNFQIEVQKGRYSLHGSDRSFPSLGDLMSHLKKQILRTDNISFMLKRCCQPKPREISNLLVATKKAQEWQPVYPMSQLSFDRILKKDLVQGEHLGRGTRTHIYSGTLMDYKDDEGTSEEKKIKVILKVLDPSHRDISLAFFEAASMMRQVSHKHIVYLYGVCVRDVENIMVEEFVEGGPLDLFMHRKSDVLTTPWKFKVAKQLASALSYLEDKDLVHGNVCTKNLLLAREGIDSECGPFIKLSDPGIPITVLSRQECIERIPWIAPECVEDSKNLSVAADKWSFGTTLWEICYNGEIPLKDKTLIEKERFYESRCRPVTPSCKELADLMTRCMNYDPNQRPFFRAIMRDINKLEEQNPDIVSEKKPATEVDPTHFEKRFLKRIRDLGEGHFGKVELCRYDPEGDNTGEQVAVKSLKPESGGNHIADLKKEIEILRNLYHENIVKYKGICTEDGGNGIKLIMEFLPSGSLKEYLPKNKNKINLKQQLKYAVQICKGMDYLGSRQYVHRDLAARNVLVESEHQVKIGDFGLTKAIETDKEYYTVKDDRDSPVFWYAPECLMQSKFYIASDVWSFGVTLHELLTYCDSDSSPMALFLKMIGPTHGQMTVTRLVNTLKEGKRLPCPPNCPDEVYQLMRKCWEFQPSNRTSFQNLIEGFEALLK
T2 sequence (O60674 whole entry, species assumed): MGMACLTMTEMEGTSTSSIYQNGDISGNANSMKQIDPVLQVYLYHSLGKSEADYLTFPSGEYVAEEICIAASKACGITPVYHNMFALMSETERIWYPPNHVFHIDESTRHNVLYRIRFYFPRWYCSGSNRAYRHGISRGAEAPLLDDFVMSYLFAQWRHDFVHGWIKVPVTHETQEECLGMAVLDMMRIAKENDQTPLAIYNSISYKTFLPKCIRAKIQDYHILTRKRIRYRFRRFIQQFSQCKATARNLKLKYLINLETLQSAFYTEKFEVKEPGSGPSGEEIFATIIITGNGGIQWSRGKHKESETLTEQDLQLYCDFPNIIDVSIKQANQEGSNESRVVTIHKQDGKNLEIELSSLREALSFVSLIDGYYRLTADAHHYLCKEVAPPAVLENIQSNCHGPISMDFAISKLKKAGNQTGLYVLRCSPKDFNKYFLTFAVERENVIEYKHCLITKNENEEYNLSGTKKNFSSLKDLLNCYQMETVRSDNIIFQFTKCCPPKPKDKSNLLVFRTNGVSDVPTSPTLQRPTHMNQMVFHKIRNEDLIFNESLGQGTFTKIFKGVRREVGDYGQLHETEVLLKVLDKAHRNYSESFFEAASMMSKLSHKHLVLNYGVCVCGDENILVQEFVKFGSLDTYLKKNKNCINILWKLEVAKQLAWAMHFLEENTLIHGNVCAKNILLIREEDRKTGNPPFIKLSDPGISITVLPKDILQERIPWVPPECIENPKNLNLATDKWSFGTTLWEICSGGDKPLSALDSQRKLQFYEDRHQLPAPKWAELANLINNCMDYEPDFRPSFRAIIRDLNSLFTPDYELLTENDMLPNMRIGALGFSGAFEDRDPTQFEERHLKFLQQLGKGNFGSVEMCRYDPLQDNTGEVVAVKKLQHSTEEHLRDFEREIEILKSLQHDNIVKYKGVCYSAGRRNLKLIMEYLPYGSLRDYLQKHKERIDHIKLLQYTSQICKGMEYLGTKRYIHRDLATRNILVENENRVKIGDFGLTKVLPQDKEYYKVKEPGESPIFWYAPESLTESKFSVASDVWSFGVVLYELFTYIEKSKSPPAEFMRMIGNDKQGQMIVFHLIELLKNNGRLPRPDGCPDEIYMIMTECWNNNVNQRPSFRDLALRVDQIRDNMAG

SMILES: C[C@@H](O)c1nc2cnc3[nH]ccc3c2n1C1CCN(C(=O)NCC(F)(F)F)C1 (stereo in doubt) [LXS20, (R)-3-(2-((R)-1-Hydroxyethyl)imidazo[4,5-d]pyrrolo[2,3-b]pyridin-1(6H)-yl)-N-(2,2,2-trifluoroethyl)pyrrolidine-1-carboxamide]
IC50 (JAK1): 100 to 1000 nM
IC50 (JAK2): 100 to 1000 nM

SMILES: CCCS(=O)(=O)N1CCC(n2c([C@@H](C)O)nc3cnc4[nH]ccc4c32)C1 (stereo in doubt) [LXS21, (R)-1-(1-((R)-1-(Propylsulfonyl)pyrrolidin-3-yl)-1,6-dihydroimidazo[4,5-d]pyrrolo[2,3-b]pyridin-2-yl)ethanol]
IC50 (JAK1): 100 to 1000 nM
IC50 (JAK2): 100 to 1000 nM

SMILES: O=C(NCC(F)(F)F)N1CCC(n2c(-c3ccc(CO)o3)nc3cnc4[nH]ccc4c32)C1 (stereo in doubt) [LXS23, (R)-3-(2-(5-(hydroxymethyl)furan-2-yl)imidazo[4,5-d]pyrrolo[2,3-b]pyridin-1(6H)-yl)-N-(2,2,2-trifluoroethyl)pyrrolidine-1-carboxamide]
IC50 (JAK1): 100 to 1000 nM
IC50 (JAK2): 100 to 1000 nM

SMILES: O=C(NCC(F)(F)F)N1CCC(n2c(-c3ncc[nH]3)nc3cnc4[nH]ccc4c32)C1 (stereo in doubt) [LXS24, (R)-3-(2-(1H-imidazol-2-yl)imidazo[4,5-d]pyrrolo[2,3-b]pyridin-1(6H)-yl)-N-(2,2,2-trifluoroethyl)pyrrolidine-1-carboxamide]
IC50 (JAK1): 100 to 1000 nM
IC50 (JAK2): 100 to 1000 nM

SMILES: C=CC(=O)N1CCC(n2c(-c3ncc[nH]3)nc3cnc4[nH]ccc4c32)C1 (stereo in doubt) [LXS25, (R)-1-(3-(2-(1H-imidazol-2-yl)imidazo[4,5-d]pyrrolo[2,3-b]pyridin-1(6H)-yl)pyrrolidin-1-yl)prop-2-en-1-one]
IC50 (JAK1): 100 to 1000 nM
IC50 (JAK2): 100 to 1000 nM

SMILES: N#C[C@H]1CC[C@H](n2c(-c3ccc(C(F)(F)F)cc3)nc3cnc4[nH]ccc4c32)CC1 (stereo in doubt) [LXS37, trans-4-(2-(4-(Trifluoromethyl)phenyl)imidazo[4,5-d]pyrrolo[2,3-b]pyridin-1(6H)-yl)cyclohexanecarbonitrile]
IC50 (JAK1): 100 to 1000 nM
IC50 (JAK2): 100 to 1000 nM

SMILES: N#C[C@H]1CC[C@H](n2c(-c3ccccc3O)nc3cnc4[nH]ccc4c32)CC1 (stereo in doubt) [LXS38, trans-4-(2-(2-Hydroxyphenyl)imidazo[4,5-d]pyrrolo[2,3-b]pyridin-1(6H)-yl)cyclohexanecarbonitrile]
IC50 (JAK1): 10 to 100 nM
IC50 (JAK2): 10 to 100 nM

SMILES: N#C[C@H]1CC[C@H](n2c(-c3ccc(O)cc3F)nc3cnc4[nH]ccc4c32)CC1 (stereo in doubt) [LXS39, trans-4-(2-(2-Fluoro-4-hydroxyphenyl)imidazo[4,5-d]pyrrolo[2,3-b]pyridin-1(6H)-yl)cyclohexanecarbonitrile]
IC50 (JAK1): 10 to 100 nM
IC50 (JAK2): 100 to 1000 nM

SMILES: N#C[C@H]1CC[C@H](n2c(-c3ccccc3F)nc3cnc4[nH]ccc4c32)CC1 (stereo in doubt) [LXS40, trans-4-(2-(2-Fluorophenyl)imidazo[4,5-d]pyrrolo[2,3-b]pyridin-1(6H)-yl)cyclohexanecarbonitrile]
IC50 (JAK1): 10 to 100 nM
IC50 (JAK2): 10 to 100 nM

SMILES: COc1ccc(-c2nc3cnc4[nH]ccc4c3n2C2CCC(C#N)CC2)c(O)c1 (stereo in doubt) [LXS41, trans-4-(2-(2-Hydroxy-4-methoxyphenyl)imidazo[4,5-d]pyrrolo[2,3-b]pyridin-1(6H)-yl)cyclohexanecarbonitrile]
IC50 (JAK1): 100 to 1000 nM
IC50 (JAK2): 100 to 1000 nM

SMILES: CSc1ccc(-c2nc3cnc4[nH]ccc4c3n2C2CCC(C#N)CC2)cc1 (stereo in doubt) [LXS42, trans-4-(2-(4-(Methylthio)phenyl)imidazo[4,5-d]pyrrolo[2,3-b]pyridin-1(6H)-yl)cyclohexanecarbonitrile]
IC50 (JAK1): 100 to 1000 nM
IC50 (JAK2): 100 to 1000 nM

SMILES: N#C[C@H]1CC[C@H](n2c(-c3ccc(F)cc3)nc3cnc4[nH]ccc4c32)CC1 (stereo in doubt) [LXS43, trans-4-(2-(4-Fluorophenyl)imidazo[4,5-d]pyrrolo[2,3-b]pyridin-1(6H)-yl)cyclohexanecarbonitrile]
IC50 (JAK1): 10 to 100 nM
IC50 (JAK2): 100 to 1000 nM

SMILES: CS(=O)(=O)c1ccc(C2Nc3cnc4[nH]ccc4c3N2C2CCC(C#N)CC2)cc1 (stereo in doubt) [LXS44, trans-4-(2-(4-(Methylsulfonyl)phenyl)-2,3-dihydroimidazo[4,5-d]pyrrolo[2,3-b]pyridin-1(6H)-yl)cyclohexanecarbonitrile]
IC50 (JAK1): 10 to 100 nM
IC50 (JAK2): 10 to 100 nM

SMILES: CCCS(=O)(=O)N1CC(CC#N)(n2cc(-n3c(-c4ccc(CO)o4)nc4cnc5[nH]ccc5c43)cn2)C1 [LXS14, 2-(1-(propylsulfonyl)-3-(4-(2-(5-(hydroxymethyl)furan-2-yl)imidazo[4,5-d]pyrrolo[2,3-b]pyridin-1(6H)-yl)-1H-pyrazol-1-yl)azetidin-3-yl)acetonitrile]
IC50 (JAK1): 100 to 1000 nM

SMILES: Cc1ccc(-c2nc3cnc4[nH]ccc4c3n2-c2cnn(CCC#N)c2)s1 [LXS84, 3-(4-(2-(5-Methylthiophen-2-yl)imidazo[4,5-d]pyrrolo[2,3-b]pyridin-1(6H)-yl)-1H-pyrazol-1-yl)propanenitrile]
IC50 (JAK1): 10 to 100 nM

Now from value to compound:

IC50 (JAK1): 10 to 100 nM
IC50 (JAK2): 10 to 100 nM
SMILES: N#C[C@H]1CC[C@H](n2c(-c3ccc(CO)o3)nc3cnc4[nH]ccc4c32)CC1 (stereo in doubt) [LXS22, trans-4-(2-(5-(hydroxymethyl)furan-2-yl)imidazo[4,5-d]pyrrolo[2,3-b]pyridin-1(6H)-yl)cyclohexanecarbonitrile]

IC50 (JAK1): 10 to 100 nM
IC50 (JAK2): 10 to 100 nM
SMILES: Cc1ncc(-c2nc3cnc4[nH]ccc4c3n2C2CCC(C#N)CC2)s1 (stereo in doubt) [LXS26, trans-4-(2-(2-Methylthiazol-5-yl)imidazo[4,5-d]pyrrolo[2,3-b]pyridin-1(6H)-yl)cyclohexanecarbonitrile]

IC50 (JAK1): 10 to 100 nM
IC50 (JAK2): 10 to 100 nM
SMILES: N#C[C@H]1CC[C@H](n2c(-c3cnc(N)s3)nc3cnc4[nH]ccc4c32)CC1 (stereo in doubt) [LXS27, trans-4-(2-(2-Aminothiazol-5-yl)imidazo[4,5-d]pyrrolo[2,3-b]pyridin-1(6H)-yl)cyclohexanecarbonitrile]

IC50 (JAK1): 10 to 100 nM
IC50 (JAK2): 10 to 100 nM
SMILES: Cc1ccc(-c2nc3cnc4[nH]ccc4c3n2C2CCC(C#N)CC2)s1 (stereo in doubt) [LXS28, trans-4-(2-(2-Methylthiophen-5-yl)imidazo[4,5-d]pyrrolo[2,3-b]pyridin-1(6H)-yl)cyclohexanecarbonitrile]

IC50 (JAK1): 10 to 100 nM
IC50 (JAK2): 10 to 100 nM
SMILES: Cc1ccc(-c2nc3cnc4[nH]ccc4c3n2C2CCC(C#N)CC2)o1 (stereo in doubt) [LXS29, trans-4-(2-(2-Methylfuran-5-yl)imidazo[4,5-d]pyrrolo[2,3-b]pyridin-1(6H)-yl)cyclohexanecarbonitrile]

IC50 (JAK1): 10 to 100 nM
IC50 (JAK2): < 10 nM
SMILES: N#C[C@H]1CC[C@H](n2c(-c3cccc(O)c3)nc3cnc4[nH]ccc4c32)CC1 (stereo in doubt) [LXS35, trans-4-(2-(3-Hydroxyphenyl)imidazo[4,5-d]pyrrolo[2,3-b]pyridin-1(6H)-yl)cyclohexanecarbonitrile]

IC50 (JAK1): 10 to 100 nM
IC50 (JAK2): 10 to 100 nM
SMILES: N#C[C@H]1CC[C@H](n2c(-c3ccc(O)cc3O)nc3cnc4[nH]ccc4c32)CC1 (stereo in doubt) [LXS36, trans-4-(2-(2,4-Dihydroxyphenyl)imidazo[4,5-d]pyrrolo[2,3-b]pyridin-1(6H)-yl)cyclohexanecarbonitrile]
